Results from patent US11660345B2, “Method and composition for enhancing the delivery of anti-platelet drugs for the treatment of acute stroke” (Realinn Life Science Limited, priority 2013, dated 2023).

Assays:
[1] = test system: mouse stroke model; conditions: intravenous injection of 100 mg/kg; cited from earlier work
[2] = test system: middle cerebral artery occlusion (MCAO) model in mice; test: Brain infarct volume, atrophy and edema by Nissl staining in mice of the middle cerebral artery occlusion model; format: in vivo; conditions: 10 mg/kg (2 mg/mL)
Description: (§1) In order to simulate human brain stroke, an intravascular suture-occluded method was employed to establish a middle cerebral artery occlusion (MCAO) model in mice. Prior to experimentation, the body weights of the mice were measured and rectum temperatures were recorded. The mice were anesthetized with 4% halothane in 100% O2 followed by 0.5-1% halothane in 70% N2O and 30% O2 to maintain the anesthetized status. The mouse cerebral artery occlusion model is established according to the Tamura method (Focal cerebral ischemia in the rat: 1. Description of technique and early neuropathological consequences following middle cerebral artery occlusion. J Cereb Blood Flow Metab. 1981; 1(1):53-60. Tamura A, Graham D I, McCulloch J, Teasdale G M). The mouse was secured in prone position and an incision was introduced to the lateral of the head and neck portion by a scalpel to expose the right common carotid artery. The middle cerebral artery (MCA) was cauterized to simulate ischemia. […]
The mice of the middle cerebral artery occlusion model were sacrificed 15 days after the treatment with the three groups of drugs. Brain samples of the mice were collected and local ischemic injuries on the neuron gray matter of the mice brains were evaluated with Nissl staining using cresyl violet. […]

[3] = test system: middle cerebral artery occlusion (MCAO) model in mice; test: Neurobehavioral test (motor neurobehavior evaluation score 0-4) in mice of the middle cerebral artery occlusion model; format: in vivo; conditions: 10 mg/kg (2 mg/mL) tail vein injection 5 hours after stroke, higher score = higher motor dysfunction (vehicle control 3)
Description: as §1, with “M).” for “M). The mouse was secured in prone position and an incision was introduced to the lateral of the head and neck portion by a scalpel to expose the right common carotid artery. The middle cerebral artery (MCA) was cauterized to simulate ischemia.”
The body weights of the mice in the three test groups in Example 4 were measured and neurological examination was conducted concurrently. […] Since 15 days after stroke is no longer the acute stroke phase, the invention evaluated the status of the motor system of mice treated within the acute stroke phase and those treated after the acute stroke phase. The motor responses to be assessed are listed in Table 1 (Middle cerebral artery occlusion in the rat by intraluminal suture. Neurological and pathological evaluation of an improved model. Belayev L, Alonso O F, Busto R, Zhao W, Ginsberg M D. Stroke. 1996 September; 27(9):1616-22; discussion 1623). […]

Row | Compound | hypotension / mortality (in words) [1] | infarct volume (in words) [1] | brain infarct volume ([2]; 5 hours after stroke, 15 days after treatment (vehicle control about 14%)) | brain atrophy (Nissl staining / infarct volume calculation) ([2]; 15 days after treatment) | score of the motor neurobehavior evaluation ([3]; after 7 days of treatment) | score of the motor neurobehavior evaluation ([3]; after 15 days of treatment)
1 | OCCN(CCO)c1nc(N2CCCCC2)c2nc(N(CCO)CCO)nc(N3CCCCC3)c2n1 [Dipyridamole] | causes hypotension and increases the mortality rate | can efficiently reduce the infarct volume | – | – | – | –
2 | recombinant-type plasminogen activator: recombinant-type plasminogen activator (rt-PA), thrombolytic agent | – | – | about 18% | atrophied after 15 days | 2.3 | 2.6
